Assay results: patent US9872873B2, “Process for preparing stable pharmaceutical compositions of compounds susceptible to hydrolysis” (Fresenius Kabi Oncology Limited, priority 2012, dated 2018)

Tests used:
Type in all cases: physicochemical
[1] = Solution stability of Azacitidine bulk solution in Water:Acetonitrile 80:20% v/v at −5 ± 2° C.; set-up: RGU / RGU-CHO: unit not given beside the values
Experimental: (§1) In another aspect of the invention the fabrication temperature was controlled at −5±3° C., −5±2° C., −5±1° C. preferably −5±2° C. using Water and Acetonitrile ratio in between 95:5 to 70:30 preferably 80:20 (% v/v) respectively. The hold time data of Azacitidine, Decitabine and Bendamustine obtained in solvent mixture of Water and Acetonitrile at a ratio of 80:20 (% v/v), when fabricated at a temperature range of −5±2° C. is presented in Table VIII, IX, X respectively.

[2] = Solution stability profile of Azacitidine in water at 25° C.; set-up: unit not given here
Experimental: In one embodiment of the invention, a batch of Azacitidine bulk solution was prepared by dissolving the compound (4 mg/mL) and Mannitol (4 mg/mL) in water at room temperature. […]

[3] = Solution stability profile of Azacitidine in water at −1° C. to 0° C.; set-up: RGU / Specified Imp-1 / Specified Imp-2 / RGU-CHO / Total Impurity (excluding RGU & RGU-CHO): unit not given here; conditions: for RGU / RGU-CHO / Specified Imp-1 / Specified Imp-2 / Total Impurity (excluding RGU & RGU-CHO): water, −1° C. to 0° C.
Experimental: It is evident from the Table I that Fabrication of the Azacitidine in water at room temperature led to a significant increase in the level of “RGU-CHO” in the Bulk Solution. Further, in order to control the degradation rate of Azacitidine, another batch was manufactured in water at possible temperature i.e. −1° C. to 0° C. by dissolving Azacitidine (4 mg/mL) and Mannitol (4 mg/mL) in water at −1° C. to 0° C. and the solution stability results are shown below in Table II.

[4] = Stability profile of Bendamustine Hydrochloride pre-lyophilized bulk solution in water (5 mg/mL) at 5 ± 3° C.
[5] = Solution stability of Bendamustine Hydrochloride bulk solution in Water:Acetonitrile 80:20% v/v at −5 ± 2° C.
Experimental: as §1

In the case of Nc1ncn([C@@H]2O[C@H](CO)[C@@H](O)[C@H]2O)c(=O)n1 [Azacitidine], the Assay ([1]; 1st hour) is reported as 101.00, the Imp-1 ([1]; 1st hour) is reported as 0.028 and the Imp-2 ([1]; 1st hour) is reported as 0.066. The RGU ([1]; 1st hour) was 0.145, the RGU-CHO ([1]; 1st hour) was 0.326 and the “Total Impurity (excluding RGU & RGU-CHO)” value ([1]; 1st hour) was 0.094. For the same compound, the Assay ([1]; 2nd hour) was 101.30, the Imp-1 ([1]; 2nd hour) was 0.028 and the Imp-2 ([1]; 2nd hour) was 0.066. The RGU ([1]; 2nd hour) was 0.145, the RGU-CHO ([1]; 2nd hour) was 0.45 and the “Total Impurity (excluding RGU & RGU-CHO)” value ([1]; 2nd hour) was 0.094. It also gave an Assay ([1]; 3rd hour) of 100.80, an Imp-1 ([1]; 3rd hour) of 0.031 and an Imp-2 ([1]; 3rd hour) of 0.068. The RGU ([1]; 3rd hour) was 0.146, the RGU-CHO ([1]; 3rd hour) was 0.591 and the “Total Impurity (excluding RGU & RGU-CHO)” value ([1]; 3rd hour) was 0.099. For the same compound, the Assay ([1]; 4th hour) was 101.30, the Imp-1 ([1]; 4th hour) was 0.026 and the Imp-2 ([1]; 4th hour) was 0.067. For the same compound, the RGU ([1]; 4th hour) was 0.146, the RGU-CHO ([1]; 4th hour) was 0.730 and the “Total Impurity (excluding RGU & RGU-CHO)” value ([1]; 4th hour) was 0.093. For the same compound, the Assay ([1]; 5th hour) was 101.00, the Imp-1 ([1]; 5th hour) was 0.049 and the Imp-2 ([1]; 5th hour) was 0.069. For the same compound, the RGU ([1]; 5th hour) was 0.148, the RGU-CHO ([1]; 5th hour) was 0.839 and the “Total Impurity (excluding RGU & RGU-CHO)” value ([1]; 5th hour) was 0.118. The Assay ([1]; Initial) was 101.80, the Imp-1 ([1]; Initial) was 0.05 and the Imp-2 ([1]; Initial) was 0.068. For the same compound, the RGU ([1]; Initial) was 0.143, the RGU-CHO ([1]; Initial) was 0.164 and the “Total Impurity (excluding RGU & RGU-CHO)” value ([1]; Initial) was 0.118. For the same compound, the Imp-1 ([2]; 1st hour) was 0.027, the Imp-2 ([2]; 1st hour) was 0.050 and the RGU ([2]; 1st hour) was 0.314. The RGU-CHO ([2]; 1st hour) was 6.966, the “Total Impurity (excluding RGU & RGU-CHO)” value ([2]; 1st hour) was 0.077 and the Imp-1 ([2]; 2nd hour) was 0.028. The Imp-2 ([2]; 2nd hour) was 0.050, the RGU ([2]; 2nd hour) was 0.591 and the RGU-CHO ([2]; 2nd hour) was 10.495. For the same compound, the “Total Impurity (excluding RGU & RGU-CHO)” value ([2]; 2nd hour) was 0.078, the Imp-1 ([2]; Initial) was 0.027 and the Imp-2 ([2]; Initial) was 0.051. The RGU ([2]; Initial) was 0.164, the RGU-CHO ([2]; Initial) was 1.158 and the “Total Impurity (excluding RGU & RGU-CHO)” value ([2]; Initial) was 0.078. The “degradation in RGU-CHO” value ([3]; manufacturing in water at −1° C. to 0° C.) was “around 4%”, the RGU ([3]; 1st hour) was 0.175 and the RGU-CHO ([3]; 1st hour) was 1.767. For the same compound, the “Specified Imp-1” value ([3]; 1st hour) was 0.025, the “Specified Imp-2” value ([3]; 1st hour) was 0.051 and the “Total Impurity (excluding RGU & RGU-CHO)” value ([3]; 1st hour) was 0.076. For the same compound, the RGU ([3]; 2nd hour) was 0.166, the RGU-CHO ([3]; 2nd hour) was 2.283 and the “Specified Imp-1” value ([3]; 2nd hour) was 0.025. The “Specified Imp-2” value ([3]; 2nd hour) was 0.051, the “Total Impurity (excluding RGU & RGU-CHO)” value ([3]; 2nd hour) was 0.076 and the RGU ([3]; 3rd hour) was 0.175. The RGU-CHO ([3]; 3rd hour) was 2.921, the “Specified Imp-1” value ([3]; 3rd hour) was 0.026 and the “Specified Imp-2” value ([3]; 3rd hour) was 0.051. The “Total Impurity (excluding RGU & RGU-CHO)” value ([3]; 3rd hour) was 0.077, the RGU ([3]; 4th hour) was 0.191 and the RGU-CHO ([3]; 4th hour) was 4.112. For the same compound, the “Specified Imp-1” value ([3]; 4th hour) was 0.027, the “Specified Imp-2” value ([3]; 4th hour) was 0.051 and the “Total Impurity (excluding RGU & RGU-CHO)” value ([3]; 4th hour) was 0.078. For the same compound, the RGU ([3]; Initial) was 0.158, the RGU-CHO ([3]; Initial) was 0.891 and the “Specified Imp-1” value ([3]; Initial) was 0.027. For the same compound, the “Specified Imp-2” value ([3]; Initial) was 0.051 and the “Total Impurity (excluding RGU & RGU-CHO)” value ([3]; Initial) was 0.078.

For Cl.Cn1c(CCCC(=O)O)nc2cc(N(CCCl)CCCl)ccc21 [Bendamustine Hydrochloride], the “Bendamustine Dimer (RRT 1.23)” value ([4]; 4 hr) was 0.06%, the “Bendamustine Ethyl Ester (BD 5) (RRT 1.38)” value (“Bendamustine Ethyl Ester” below) ([4]; 4 hr) was 0.01% and the “H-unk (Highest Unknown Impurity)” value ([4]; 4 hr) was 0.01%. For the same compound, the “Monohydroxy Bendamustine (RRT 0.47)” value ([4]; 4 hr) was 0.58%, the “Total Related Substances” value ([4]; 4 hr) was 0.69% and the “Bendamustine Dimer (RRT 1.23)” value ([4]; 8 hr) was 0.10%. The “Bendamustine Ethyl Ester” value ([4]; 8 hr) was 0.01%, the “H-unk (Highest Unknown Impurity)” value ([4]; 8 hr) was 0.01% and the “Monohydroxy Bendamustine (RRT 0.47)” value ([4]; 8 hr) was 1.59%. For the same compound, the “Total Related Substances” value ([4]; 8 hr) was 1.77%, the “Bendamustine Dimer (RRT 1.23)” value ([4]; 24 hr) was 0.19% and the “Bendamustine Ethyl Ester” value ([4]; 24 hr) was 0.01%. For the same compound, the “H-unk (Highest Unknown Impurity)” value ([4]; 24 hr) was 0.01%, the “Monohydroxy Bendamustine (RRT 0.47)” value ([4]; 24 hr) was 4.13% and the “Total Related Substances” value ([4]; 24 hr) was 4.37%. The “Bendamustine Dimer (RRT 1.23)” value ([4]; Initial) was 0.04%, the “Bendamustine Ethyl Ester” value ([4]; Initial) was 0.00% and the “H-unk (Highest Unknown Impurity)” value ([4]; Initial) was 0.01%. For the same compound, the “Monohydroxy Bendamustine (RRT 0.47)” value ([4]; Initial) was 0.12%, the “Total Related Substances” value ([4]; Initial) was 0.20% and the “Bendamustine Dimer (RRT 1.23)” value ([5]; 1 hr) was 0.05%. For the same compound, the “Bendamustine Ethyl Ester” value ([5]; 1 hr) was 0.003%, the “H-unk (Highest Unknown Impurity)” value ([5]; 1 hr) was 0.03% and the “Monohydroxy Bendamustine (RRT 0.47)” value ([5]; 1 hr) was 0.02%. For the same compound, the “Total Related Substances” value ([5]; 1 hr) was 0.17%, the “Bendamustine Dimer (RRT 1.23)” value ([5]; 2 hr) was 0.05% and the “Bendamustine Ethyl Ester” value ([5]; 2 hr) was 0.003%. The “H-unk (Highest Unknown Impurity)” value ([5]; 2 hr) was 0.03%, the “Monohydroxy Bendamustine (RRT 0.47)” value ([5]; 2 hr) was 0.03% and the “Total Related Substances” value ([5]; 2 hr) was 0.18%. For the same compound, the “Bendamustine Dimer (RRT 1.23)” value ([5]; 3 hr) was 0.05%, the “Bendamustine Ethyl Ester” value ([5]; 3 hr) was 0.003% and the “H-unk (Highest Unknown Impurity)” value ([5]; 3 hr) was 0.03%. The “Monohydroxy Bendamustine (RRT 0.47)” value ([5]; 3 hr) was 0.04%, the “Total Related Substances” value ([5]; 3 hr) was 0.19% and the “Bendamustine Dimer (RRT 1.23)” value ([5]; 6 hr) was 0.06%. The “Bendamustine Ethyl Ester” value ([5]; 6 hr) was 0.003%, the “H-unk (Highest Unknown Impurity)” value ([5]; 6 hr) was 0.03% and the “Monohydroxy Bendamustine (RRT 0.47)” value ([5]; 6 hr) was 0.07%. The “Total Related Substances” value ([5]; 6 hr) was 0.23%, the “Bendamustine Dimer (RRT 1.23)” value ([5]; 8 hr) was 0.06% and the “Bendamustine Ethyl Ester” value ([5]; 8 hr) was 0.003%. For the same compound, the “H-unk (Highest Unknown Impurity)” value ([5]; 8 hr) was 0.03%, the “Monohydroxy Bendamustine (RRT 0.47)” value ([5]; 8 hr) was 0.09% and the “Total Related Substances” value ([5]; 8 hr) was 0.25%. For the same compound, the “Bendamustine Dimer (RRT 1.23)” value ([5]; Initial) was 0.05%, the “Bendamustine Ethyl Ester” value ([5]; Initial) was 0.003% and the “H-unk (Highest Unknown Impurity)” value ([5]; Initial) was 0.03%. For the same compound, the “Monohydroxy Bendamustine (RRT 0.47)” value ([5]; Initial) was 0.01% and the “Total Related Substances” value ([5]; Initial) was 0.15%.
